In patent EP0176369A2, “7-(Alpha-(4-oxo-2-azetidinyl(or -azetidinylalkyl)-oxyimino)-alpha-(2-amino-4-thiazolyl)acetamido]-3- substituted-Delta 3-cephem-4-carboxylic acid compounds and salts thereof, their production, and medicaments containing them” (YAMANOUCHI PHARMACEUTICAL CO. LTD., priority 1984, dated 1986):
Converted amounts (≈) assume the structure as drawn.

What was measured:
Test in all cases: Antibacterial activity (minimum effective inhibitory concentration)
Type in all cases: cell-based
[1] = test system: Kleb. pneumoniae ATCC 10031; settings: Klebsiella pneumoniae, ATCC10031, read-out: minimum effective inhibitory concentrations
Source text: (§1) Antibacterial activities (minimum effective inhibitory concentrations) of compounds of formula I (taken from the following Examples) are shown in the following Table.

[2] = test system: Ps. aeruginosa NCTC 10490; settings: Pseudomonas aeruginosa, NCTC10490, read-out: minimum effective inhibitory concentrations
Source text: as §1

[3] = test system: Sal. enteritidis 1891; settings: Salmonella enterica, read-out: minimum effective inhibitory concentrations
Source text: as §1

[4] = test system: Serr. marcescens II D 620; settings: Serratia marcescens, IID620, read-out: minimum effective inhibitory concentrations
Source text: as §1

[5] = test system: Staph. epidermidis IIb 866; settings: Staphylococcus epidermidis, IIB866, read-out: minimum effective inhibitory concentrations
Source text: as §1

Row | MIC [1] | MIC [2] | MIC [3] | MIC [4] | MIC [5] | SMILES
1 | 0.025 µg/mL | 0.78 µg/mL | 0.025 µg/mL | 0.05 µg/mL | 0.2 µg/mL | Cn1nnnc1SCC1=C(C(=O)O)N2C(=O)C(NC(=O)C(=NOC3CC(=O)N3)c3csc(N)n3)C2SC1 (stereo not drawn) [Example 1, sodium (Z)-7-[α-(4-oxo-2-azptidinyloxyimino)-4-(2-amino-4-thiazolyl)acet-amido]-3-(1-methyl-5-tetrazolyl)thiomethyl-Δ^3-cephem-4-carboxylate]
2 | 0.05 µg/mL | 0.1 µg/mL | 0.1 µg/mL | 0.1 µg/mL | 0.78 µg/mL | Nc1nc(C(=NOC2CC(=O)N2)C(=O)NC2C(=O)N3C(C(=O)O)=C(CSc4nnnn4CCO)CSC23)cs1 (centres unmarked) [Example 2, sodium (Z)-7[-(2-amino-4-thiazolyl)-∝-(4-oxo-2-azetidingloxyiino)acetamido]-3-[1-(2-gtdrixy-ethyl)-5-tetrazolyl]thiomethyl-^3-cephem-4-carboxcylate]
3 | 0.1 µg/mL (≈ 0.184 µM) | 0.78 µg/mL (≈ 1.43 µM) | 0.1 µg/mL (≈ 0.184 µM) | 0.1 µg/mL (≈ 0.184 µM) | 0.2 µg/mL (≈ 0.367 µM) | Nc1ccc[n+](CC2=C(C(=O)[O-])N3C(=O)C(NC(=O)C(=NOC4CC(=O)N4)c4csc(N)n4)C3SC2)c1 (stereo not drawn) [Example 4, (Z)-7-[α(-2-amino-4-thiazolyl) -α-(4-oxo-2-azetidinyloxyimino)acetamido]-3-(3-amino-pyridiniomethyl)-^3-cephem-4-carboxylate]
4 | 0.05 µg/mL (≈ 0.0934 µM) | 0.39 µg/mL (≈ 0.728 µM) | 0.05 µg/mL (≈ 0.0934 µM) | 0.1 µg/mL (≈ 0.187 µM) | 0.2 µg/mL (≈ 0.373 µM) | C[N+]1(CC2=C(C(=O)[O-])N3C(=O)C(NC(=O)C(=NOC4CC(=O)N4)c4csc(N)n4)C3SC2)CCCC1 (centres unmarked) [Example 7, (Z)-7-[ -(2-amino-4-thiazolyl)- -(4-oxo-2-azetidinyloxyimino)-acetamido]-3-(1-methyl-1-pyrrolidiniomethyl)-3-cephem-4-carboxylate]
